Measured values published in US20160303182A1, “USE OF PEPTIDES IN ANTIBIOTIC RESISTANCE” (priority 2013, published 2016).
Bridges are numbered along the chain shown (N, C = ends). Where no end group is shown, it is not given here.

What was measured:
[1] = tested on: methicillin sensitive S. aureus ATCC 25923 (MSSA); experiment: CFU count after 24 h incubation with antibiotic alone or with grZ14s-nvCyc; type: cell-based, Staphylococcus aureus
Procedure: (§1) Staphylococcus aureus ATCC 43300 (5×10^5 CFU/mL) (MRSA strain) was incubated in 1.5 mL Eppendorf tubes with either oxacillin alone or oxacillin with the grZ14s-nvCyc peptide (10 nM) (cyclized CSVHSFDYDWYNVC) for 24 hours at 37° C. with shaking (250 rpm). The solutions in the tubes were diluted ten-fold with phosphate buffered saline (PBS) by serial dilutions. The diluted solutions were then seeded on a blood agar plate and incubated at 37° C. for 24 hours. The results represent the number of Colony Forming Unit (CFU) counts on the blood agar plates.
As a comparison, a strain of methicillin sensitive S. aureus ATCC 25923 (5×10^5 CFU/mL) was treated with oxacillin, alone or with the grZ14s-nvCyc (10 nM).
(§2) A similar assay was performed with S. aureus ATCC 43300 at a concentration of 7×10^6 CFU/mL. The bacterial concentration in this assay is higher (˜7×10^6 CFU/mL).
(§3) S. aureus ATCC 33591 (MRSA strain) (5×10^7 CFU/mL) and methicillin sensitive strain (MSSA) of S. aureus ATCC 25923 (1×10^8 CFU/mL) were incubated in 1.5 mL Eppendorf tubes with either oxacillin alone or oxacillin with the grZ14s-nvCyc (10 nM) for 24 hours at 37° C. with shaking (250 rpm). The solutions in the tubes were diluted ten-fold with PBS by serial dilutions. The diluted solutions were then seeded on a blood plate agar and incubated at 37° C. for 24 hours.

[2] = tested on: K. pneumoniae ATCC BAA 1705 (carbapenemase positive strain); experiment: as above; type: cell-based, Klebsiella pneumoniae
Procedure: K. pneumoniae ATCC BAA® 1705 (3×10^2 CFU/mL) (carbapenemase positive strain) (carbapenem-imipenem and ertapenem, amikacin, aztreonam, levofloxacin and ciprofloxacin-resistant strain) was incubated with imipenem, alone or with the grZ14s-nvCyc peptide (10 nM), for 24 hours at 37° C. with shaking (250 rpm). The solutions were then treated as described in the examples above. […]
Similarly, K. pneumoniae ATCC BAA® 1705 (1×10^5 CFU/mL) was incubated with ciprofloxacin, alone or with grZ14s-nvCyc, as described in the Examples above. […]
K. pneumoniae ATCC BAA® 1705 (2×10^6 CFU/mL) (carbapenem-imipenem and ertapenem, amikacin, aztreonam, levofloxacin and ciprofloxacin-resistant strain) was incubated with levofloxacin, alone or with grZ14s-nvCyc, as described in the Examples above.
K. pneumoniae ATCC BAA® 1705 (1×10^5 CFU/mL) (carbapenem-imipenem and ertapenem, amikacin, aztreonam, levofloxacin and ciprofloxacin-resistant strain) was incubated with aztreonam, alone or with grZ14s-nvCyc, as described in the Examples above. […]

[3] = tested on: Klebsiella pneumoniae ATCC 700603 (MDR resistant strain); experiment: as above; type: cell-based
Procedure: Klebsiella pneumoniae ATCC 700603 (MDR resistant strain: Resistant to ampicillin, aztreonam, cefoxitin, cefpodoxime, ceftazidime, chloramphenicol, piperacillin, tetracycline) (3×10^5 CFU/mL) was incubated with either ampicillin, alone or with the grZ14s-nvCyc peptide (10 nM), for 24 hours at 37° C. with shaking (250 rpm). The solutions in the tubes were diluted ten-fold with phosphate buffered saline (PBS) by serial dilutions. The diluted solutions were then seeded on a blood plate agar and incubated at 37° C. for 24 hours.
A similar assay was performed with K. pneumoniae at lower bacterial concentrations of 2×10^3 CFU/mL.
K. pneumoniae ATCC 700603 (MDR resistant strain: Resistant to ampicillin, aztreonam, cefoxitin, cefpodoxime, ceftazidime, chloramphenicol, piperacillin, tetracycline) (2×10^6 CFU/mL) was incubated with either cefoxitin, alone or with the grZ14s-nvCyc peptide (10 nM), for 24 hours at 37° C. with shaking (250 rpm). The solutions were then treated as described in the examples above.
Similarly, K. pneumoniae ATCC 700603 (MDR resistant strain: Resistant to ampicillin, aztreonam, cefoxitin, cefpodoxime, ceftazidime, chloramphenicol, piperacillin, tetracycline) (4×10^6 CFU/mL) was incubated with chloramphenicol, alone or with grZ14s-nvCyc, as described in the Examples above.
Similarly, K. pneumoniae ATCC 700603 (MDR resistant strain: Resistant to ampicillin, aztreonam, cefoxitin, cefpodoxime, ceftazidime, chloramphenicol, piperacillin, tetracycline) (1×10^3 CFU/mL) was incubated with chloramphenicol, alone or with grZ14s-nvCyc, as described in the Examples above.

[4] = tested on: S. aureus ATCC 33591 (MRSA strain); experiment: as above; type: cell-based, Staphylococcus aureus; settings: 10 nM grZ14s-nvCyc
Procedure: as §3
S. aureus ATCC 33591 (5×10^5 CFU/mL) (MRSA strain) was incubated in 1.5 mL Eppendorf tubes with oxacillin, alone or with the grZ14s-nvCyc peptide (10 nM), for 24 hours at 37° C. with shaking (250 rpm). […] The solutions in the tubes were diluted ten-fold with phosphate buffered saline (PBS) by serial dilutions. The diluted solutions were then seeded on a blood plate agar and incubated at 37° C. for 24 hours.

[5] = tested on: Staphylococcus aureus ATCC 43300 (MRSA strain); experiment: as above; type: cell-based; settings: for bacteria killing concentration of oxacillin with grZ14s-nvCyc versus oxacillin alone: 10 nM grZ14s-nvCyc
Procedure: as §1, §2

[6] = tested on: Enterococcus faecium ATCC 700221 (vancomycin, teicoplanin and tetracyclin resistant strain); experiment: as above; type: cell-based; settings: for bacteria killing concentration of tetracyclin lower with grZ14s-nvCyc than with tetracyclin alone: grZ14s-nvCyc (10 mN)
Procedure: Enterococcus faecium ATCC 700221 (4×10^2 CFU/mL) (vancomycin, teicoplanin and tetracyclin resistant strain) was incubated in 1.5 mL Eppendorf tubes with either vancomycin, alone or with the grZ14s-nvCyc peptide (10 nM), for 24 hours at 37° C. with shaking (250 rpm). The solutions in the tubes were diluted ten-fold with phosphate buffered saline (PBS) by serial dilutions. The diluted solutions were then seeded on a blood plate agar and incubated at 37° C. for 24 hours.
E. faecium ATCC 700221 (2×10^2 CFU/mL) (vancomycin, teicoplanin and tetracyclin resistant strain) was incubated with either teicoplanin, alone or with the grZ14s-nvCyc peptide (10 nM), for 24 hours at 37° C. with shaking (250 rpm). The solutions were treated as described above.
E. faecium ATCC 700221 (1×10^3 CFU/mL) (vancomycin, teicoplanin and tetracyclin resistant strain) was incubated with tetracyclin, alone or with grZ14s-nvCyc ([…]), as described in the Examples above. […] Similarly, E. faecium ATCC 700221 (2×10^5 CFU/mL) (vancomycin, teicoplanin and tetracyclin resistant strain) was incubated with tetracyclin, alone or with grZ14s-nvCyc ([…]), as described in the Examples above.

[7] = tested on: S. aureus ATCC BAA 1708 (MRSA strain, mupA positive); experiment: CFU count after incubation with mupirocin alone or with grZ14s-nvCyc; type: cell-based, Staphylococcus aureus; settings: 1×10^5 CFU/mL; 10 nM grZ14s-nvCyc; FIG. 12
Procedure: as §1
S. aureus ATCC BAA® 1708 (MRSA strain, mupA positive) (1×10^5 CFU/mL) was incubated with mupirocin, alone or with grZ14s-nvCyc as described in the Examples above.

Cc1onc(-c2ccccc2)c1C(=O)N[C@@H]1C(=O)N2[C@@H]1SC(C)(C)[C@@H]2C(=O)O [oxacillin, reference compound]
oxacillin concentration needed to kill the bacteria ([1]; ~7×10^6 CFU/mL, oxacillin alone, FIG. 2): 12.5 µg/mL

C[C@H]1[C@H](NC(=O)/C(=N\OC(C)(C)C(=O)O)c2csc(N)n2)C(=O)N1S(=O)(=O)O [aztreonam, reference compound]
bacteria killing by aztreonam alone ([2]; 1×10^3 CFU/mL, FIG. 19b): able achieve bacteria killing activity
bacteria killing by aztreonam alone ([2]; 1×10^5 CFU/mL, at 1000 μg/ml aztreonam, FIG. 19): does not achieve bacteria killing

CC1(C)S[C@@H]2[C@H](NC(=O)[C@H](N)c3ccccc3)C(=O)N2[C@H]1C(=O)O [ampicillin, reference compound]
bacteria killing by ampicillin alone ([3]; 2×10^3 CFU/mL, FIG. 8): achieves bacteria killing with the antibiotic alone
bacterial killing by ampicillin alone ([3]; 3×10^5 CFU/mL, even very high concentrations of ampicillin, FIG. 7): could not achieve bacterial killing

O=C(N[C@H](CO)[C@H](O)c1ccc([N+](=O)[O-])cc1)C(Cl)Cl [chloramphenicol, reference compound]
bacteria killing by chloramphenicol alone ([3]; 1×10^3 CFU/mL, FIG. 16): can achieve bacteria killing activity
bacteria killing by chloramphenicol alone ([3]; 4×10^6 CFU/mL, at the concentration where the combination kills, FIG. 15): does not achieve bacteria killing

cyclized CSVHSFDYDWYNVC (disulfide 1-14 (inferred); not fully specified) [grZ14s-nvCyc]
bacteria killing concentration of oxacillin with grZ14s-nvCyc versus oxacillin alone ([4]; 5×10^5 CFU/mL, FIG. 4a): much lower
bacteria killing concentration of oxacillin in the presence of the peptide versus oxacillin alone ([4]; 5×10^7 CFU/mL, FIG. 3): reduced to about half
bacteria killing concentration of oxacillin with grZ14s-nvCyc versus oxacillin alone ([5]; 5×10^5 CFU/mL, 24 h, 37° C., FIG. 1a): much lower
bacteria killing concentration of oxacillin with grZ14s-nvCyc versus oxacillin alone ([5]; 7×10^6 CFU/mL, FIG. 2): much lower
oxacillin concentration needed to kill the bacteria, with grZ14s-nvCyc ([5]; ~7×10^6 CFU/mL, oxacillin with 10 nM grZ14s-nvCyc, FIG. 2): 6.25 µg/mL
bacteria killing concentration of tetracyclin lower with grZ14s-nvCyc than with tetracyclin alone ([6]; 1×10^3 CFU/mL, FIG. 13a): 60%
bacteria killing concentration of teicoplanin lower with grZ14s-nvCyc than with teicoplanin alone ([6]; 2×10^2 CFU/mL, 10 nM grZ14s-nvCyc, FIG. 6): about 60%
bacteria killing concentration of tetracyclin lower with grZ14s-nvCyc than with tetracyclin alone ([6]; 2×10^5 CFU/mL, FIG. 13b): ~70%
bacteria killing concentration of vancomycin lower with grZ14s-nvCyc than with vancomycin alone ([6]; 4×10^2 CFU/mL, 10 nM grZ14s-nvCyc, FIG. 5): about 50%
difference between the activity of oxacillin with or without grZ14s-nvCyc ([1]; 1×10^6 CFU/mL, 10 nM grZ14s-nvCyc, FIG. 4b): no significant difference
bacteria killing concentration of oxacillin in the presence of the peptide versus oxacillin alone ([1]; 1×10^8 CFU/mL, 10 nM grZ14s-nvCyc, FIG. 3): reduced to about half
difference between the activity of oxacillin with or without grZ14s-nvCyc ([1]; 5×10^5 CFU/mL, 10 nM grZ14s-nvCyc, FIG. 1b): no significant difference
bacteria killing concentration of ciprofloxacin lower with grZ14s-nvCyc than with ciprofloxacin alone ([2]; 1×10^5 CFU/mL, 10 nM grZ14s-nvCyc, FIG. 14): 80%
aztreonam concentration at which aztreonam with grZ14s-nvCyc achieves bacteria killing ([2]; 1×10^5 CFU/mL, 10 nM grZ14s-nvCyc, FIG. 19): 1000 µg/mL
bacteria killing concentration of amikacin with grZ14s-nvCyc lower than with amikacin alone ([2]; 1×10^6 CFU/mL, incubated with amikacin, alone or with grZ14s-nvCyc, FIG. 17): 75%
bacteria killing concentration of levofloxacin with grZ14s-nvCyc lower than with levofloxacin alone ([2]; 2×10^6 CFU/mL, 10 nM grZ14s-nvCyc, FIG. 18): 30%
bacteria killing concentration of imipenem lower with grZ14s-nvCyc than in imipenem alone ([2]; 3×10^2 CFU/mL, 10 nM grZ14s-nvCyc, FIG. 10): > 75%
bacteria killing concentration of chloramphenicol with grZ14s-nvCyc lower than with chloramphenicol alone ([3]; 1×10^3 CFU/mL, 10 nM grZ14s-nvCyc, FIG. 16): 20%
bacteria killing concentration of ampicillin lower with grZ14s-nvCyc than with ampicillin alone ([3]; 2×10^3 CFU/mL, 10 nM grZ14s-nvCyc, FIG. 8): 100 µg/mL
bacteria killing concentration of cefoxitin lower with grZ14s-nvCyc than in cefoxitin alone ([3]; 2×10^6 CFU/mL, 10 nM grZ14s-nvCyc, FIG. 9): > 80%
bacteria killing activity of ampicillin with grZ14s-nvCyc at lower concentrations ([3]; 3×10^5 CFU/mL, 10 nM grZ14s-nvCyc, FIG. 7): ~100%
bacteria killing by chloramphenicol with grZ14s-nvCyc ([3]; 4×10^6 CFU/mL, 10 nM grZ14s-nvCyc, FIG. 15): achieves bacteria killing at a concentration where chloramphenicol alone does not achieve bacteria killing
bacterial load in the presence of a combination of mupirocin and grZ14s-nvCyc [7]: reduced by at least one order of magnitude
